According to ChEMBL document CHEMBL1142823, “Analysis of structure-activity relationships for the 'B-region' of N-(4-t-butylbenzyl)-N'-[4-(methylsulfonylamino)benzyl]-thiourea analogues as TRPV1 antagonists” (Bioorg Med Chem Lett, 2005):

Experiments:
[1] = biological target: T1, Transient receptor potential cation channel subfamily V member 1 (Rattus norvegicus, UniProt O35433); test: Induction of [Ca2+] uptake in CHO cells expressing rat TRPV1 at 10-30 uM relative to 300 nM capsaicin; Not effective; assay type: functional, cell-based
T1 sequence (O35433 whole entry): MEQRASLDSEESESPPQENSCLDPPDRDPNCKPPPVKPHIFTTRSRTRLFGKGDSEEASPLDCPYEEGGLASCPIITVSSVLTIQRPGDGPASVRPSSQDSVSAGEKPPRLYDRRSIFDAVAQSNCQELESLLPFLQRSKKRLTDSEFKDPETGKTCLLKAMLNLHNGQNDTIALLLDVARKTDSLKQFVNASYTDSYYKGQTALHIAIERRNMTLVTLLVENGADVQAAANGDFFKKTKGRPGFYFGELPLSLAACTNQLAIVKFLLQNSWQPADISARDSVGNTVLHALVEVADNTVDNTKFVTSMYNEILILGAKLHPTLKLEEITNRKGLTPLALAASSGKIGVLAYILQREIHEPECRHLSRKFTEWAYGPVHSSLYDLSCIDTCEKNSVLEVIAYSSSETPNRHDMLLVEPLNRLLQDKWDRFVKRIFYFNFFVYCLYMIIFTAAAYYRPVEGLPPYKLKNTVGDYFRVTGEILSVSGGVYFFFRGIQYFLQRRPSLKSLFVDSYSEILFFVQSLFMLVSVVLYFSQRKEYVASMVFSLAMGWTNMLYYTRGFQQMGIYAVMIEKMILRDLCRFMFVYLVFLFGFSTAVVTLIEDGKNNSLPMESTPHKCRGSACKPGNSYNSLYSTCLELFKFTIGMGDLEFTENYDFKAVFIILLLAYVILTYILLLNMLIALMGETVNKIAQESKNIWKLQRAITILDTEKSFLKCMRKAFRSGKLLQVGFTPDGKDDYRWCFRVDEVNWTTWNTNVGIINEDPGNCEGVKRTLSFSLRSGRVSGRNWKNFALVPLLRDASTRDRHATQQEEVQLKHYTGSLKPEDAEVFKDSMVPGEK

[2] = biological target: T1, Transient receptor potential cation channel subfamily V member 1; test: In vitro inhibition of [3H]RTX binding to rat TRPV1 expressed in CHO cells; assay type: cell-based
[3] = biological target: T1, Transient receptor potential cation channel subfamily V member 1; test: Antagonist activity towards rat TRPV1 expressed in CHO cells; assay type: functional, cell-based
[4] = biological target: T1, Transient receptor potential cation channel subfamily V member 1; test: Induction of [Ca2+] uptake in CHO cells expressing rat TRPV1 at 10-30 uM relative to 300 nM capsaicin; Weakly effective; assay type: functional, cell-based
[5] = biological target: T1, Transient receptor potential cation channel subfamily V member 1; test: Antagonist activity towards rat TRPV1 expressed in CHO cells; Not effective; assay type: functional, cell-based
[6] = biological target: T1, Transient receptor potential cation channel subfamily V member 1; test: Induction of [Ca2+] uptake in CHO cells expressing rat TRPV1 relative to 300 nM capsaicin; assay type: functional, cell-based

| EC50 [1] | Ki [2] [nM] | Ki [3] [nM] | Structure (SMILES) | other results |
| --- | --- | --- | --- | --- |
| Not Active | 6400 | 2010 | CC(C)(C)c1ccc(N/N=C(\S)NCc2ccc(NS(C)(=O)=O)cc2)cc1 |  |
| Not Active | 772 | 222 | CC(C)(C)c1ccc(C/N=C(\S)OCc2ccc(NS(C)(=O)=O)cc2)cc1 |  |
|  |  | 6600 | CC(C)(C)c1ccc(CN(O)C(=O)Cc2ccc(NS(C)(=O)=O)cc2)cc1 | efficacy [4]: 30% |
| Not Active | > 25000 |  | CCCCCCCC/C=C\CCCCCCCCNC(=O)Cc1ccc(NS(C)(=O)=O)cc1 | Ki [5]: Not Active |
|  | 4600 | 6250 | CC(C)(C)c1ccc(CO/C(S)=N/Cc2ccc(NS(C)(=O)=O)cc2)cc1 | efficacy [4]: 13% |
| Not Active | 1310 | 579 | CC(C)(C)c1ccc(CN(O)/C(S)=N/Cc2ccc(NS(C)(=O)=O)c(Cl)c2)cc1 |  |
| Not Active | 2270 |  | CC(C)(C)c1ccc(CN(O)/C(S)=N/Cc2ccc(NS(C)(=O)=O)cc2Cl)cc1 | Ki [5]: Not Active |
| Not Active |  | 1460 | CC(C)(C)c1ccc(C/N=C(\S)NNc2ccc(NS(C)(=O)=O)cc2)cc1 |  |
|  | 5220 | 6760 | CC(C)(C)c1ccc(CC(=O)NCc2ccc(NS(C)(=O)=O)cc2)cc1 | efficacy [4]: 20% |
|  |  |  | CC(C)(C)c1ccc(CN(O)/C(S)=N/Cc2ccc(NS(C)(=O)=O)c(F)c2)cc1 | EC50 [6]: > 7060 nM; Ki [5]: Not Active |
| Not Active | 2560 | 225 | CC(C)(C)c1ccc(CNC(=O)NCc2ccc(NS(C)(=O)=O)cc2)cc1 |  |
|  |  |  | COc1cc(C/N=C(\S)N(O)Cc2ccc(C(C)(C)C)cc2)ccc1NS(C)(=O)=O | Ki [5]: Not Active |
| Not Active |  | 635 | CC(C)(C)c1ccc(CN(O)/C(S)=N/Cc2ccc(NS(C)(=O)=O)c([N+](=O)[O-])c2)cc1 |  |
| Not Active |  | 470 | CC(C)(C)c1ccc(C/N=C(\S)N(O)Cc2ccc(NS(C)(=O)=O)cc2)cc1 |  |
|  |  |  | CC(C)(C)c1ccc(CNC(=O)N(O)Cc2ccc(NS(C)(=O)=O)cc2)cc1 | Ki [5]: Not Active |
| Not Active | 53.5 |  | CC(C)(C)c1ccc(CNC(=S)NCc2ccc(NS(C)(=O)=O)c(F)c2)cc1 |  |
| Not Active |  |  | Oc1cc2c(cc1O)CN(C(=S)NCCc1ccc(Cl)cc1)CCC2 [CAPSAZEPINE] |  |
| Not Active |  | 8400 | COc1cc(C/N=C(\S)OCc2ccc(C(C)(C)C)cc2)ccc1NS(C)(=O)=O |  |
| Not Active | 472 | 118 | CC(C)(C)c1ccc(CNC(=O)Cc2ccc(NS(C)(=O)=O)c(F)c2)cc1 |  |
|  | 450 | 120 | CC(C)(C)c1ccc(C/N=C(\S)OCc2ccc(NS(C)(=O)=O)c(F)c2)cc1 | efficacy [4]: 7% |
|  |  |  | CC(C)(C)c1ccc(CC(=O)N(O)Cc2ccc(NS(C)(=O)=O)cc2)cc1 | Ki [5]: Not Active |
| Not Active | 461 | 110 | COc1cc(CO/C(S)=N/Cc2ccc(C(C)(C)C)cc2)ccc1NS(C)(=O)=O |  |
| Not Active |  | 4660 | Cc1ccc(CCCNC(=O)Cc2ccc(NS(C)(=O)=O)c(F)c2)cc1C |  |
| Not Active |  |  | CC(C)(C)c1ccc(CNC(=S)NCc2ccc(NS(C)(=O)=O)cc2)cc1 |  |
| Not Active | 2100 | 398 | CC(C)(C)c1ccc(CNC(=O)Cc2ccc(NS(C)(=O)=O)cc2)cc1 |  |
| Not Active | 7180 | 13600 | Cc1ccc(CCCNC(=O)Cc2ccc(NS(C)(=O)=O)cc2)cc1C |  |
|  |  | 470 | CC(C)(C)c1ccc(CN(O)/C(S)=N/Cc2ccc(NS(C)(=O)=O)cc2)cc1 | efficacy [4]: 16% |

| Structure (SMILES) | EC50 [1] | Ki [2] [nM] | Ki [3] [nM] | other results |
| --- | --- | --- | --- | --- |
| COc1cc(CNC(=S)NCc2ccc(C(C)(C)C)cc2)ccc1NS(C)(=O)=O |  | 50.4 | 3.4 | EC50 [4]: Partial agonist |
